Assay results: US6875743B1, “Cell adhesion inhibitors” (Biogen, Inc., priority 1996, dated 2005)
pIC50: −log10 of the molar value. Like-named read-outs stand apart in the source and are kept apart here. Numbered stars: 1 amine (or outer) side, 2 acyl side, 3 side chain; on linkers, the order of the positions; unused ones are H or OH. Square brackets hold non-standard residues; d marks the D form. Peptide text beside a SMILES is read from it. * marks the point of attachment. Fmoc = O=C(OCC1c2ccccc2-c2ccccc21)*; X1 = O=C(Cc1ccc(N[*:1])cc1)[*:2]; NH(2-Me-phenyl) = Cc1ccccc1N*; PhAc = O=C(Cc1ccccc1)*; Boc = CC(C)(C)OC(=O)*; CO = O=C([*:1])[*:2]; NHPh = c1ccc(N*)cc1; Ahx = NCCCCCC(=O)O; X3 = Cc1cccc(N*)n1; Bn = c1ccc(C*)cc1

Molecular target: T1, VLA4 (Homo sapiens, UniProt P05556+P13612)
T1 construct: endogenous in cells; host or cells: Ramos cells
T1 sequence (P13612 34-1032): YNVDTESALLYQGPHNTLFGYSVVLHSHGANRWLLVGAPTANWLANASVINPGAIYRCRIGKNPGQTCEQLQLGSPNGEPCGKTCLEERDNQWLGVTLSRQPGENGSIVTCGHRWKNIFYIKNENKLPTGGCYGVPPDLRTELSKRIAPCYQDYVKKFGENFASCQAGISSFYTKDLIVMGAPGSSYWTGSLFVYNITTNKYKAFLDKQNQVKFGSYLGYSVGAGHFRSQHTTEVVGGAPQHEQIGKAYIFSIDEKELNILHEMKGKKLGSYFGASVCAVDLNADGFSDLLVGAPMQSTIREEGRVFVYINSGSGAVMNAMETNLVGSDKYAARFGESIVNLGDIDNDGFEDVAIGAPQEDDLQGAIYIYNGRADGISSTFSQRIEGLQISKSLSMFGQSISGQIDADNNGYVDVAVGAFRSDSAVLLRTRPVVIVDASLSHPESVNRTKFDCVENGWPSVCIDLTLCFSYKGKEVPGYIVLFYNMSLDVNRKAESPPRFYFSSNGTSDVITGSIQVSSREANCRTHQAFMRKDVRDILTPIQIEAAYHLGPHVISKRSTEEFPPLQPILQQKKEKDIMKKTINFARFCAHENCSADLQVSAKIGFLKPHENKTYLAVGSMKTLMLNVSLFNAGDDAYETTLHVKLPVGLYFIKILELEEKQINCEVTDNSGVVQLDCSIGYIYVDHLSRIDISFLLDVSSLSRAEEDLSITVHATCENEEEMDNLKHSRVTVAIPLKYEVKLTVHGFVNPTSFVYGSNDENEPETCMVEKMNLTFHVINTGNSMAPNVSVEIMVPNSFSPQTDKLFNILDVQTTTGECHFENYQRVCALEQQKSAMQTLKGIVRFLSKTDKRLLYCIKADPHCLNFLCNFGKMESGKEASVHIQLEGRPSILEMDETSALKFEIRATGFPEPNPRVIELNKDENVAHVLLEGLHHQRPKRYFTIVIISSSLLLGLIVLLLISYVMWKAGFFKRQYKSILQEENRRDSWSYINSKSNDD
T1 sequence (P05556 21-798): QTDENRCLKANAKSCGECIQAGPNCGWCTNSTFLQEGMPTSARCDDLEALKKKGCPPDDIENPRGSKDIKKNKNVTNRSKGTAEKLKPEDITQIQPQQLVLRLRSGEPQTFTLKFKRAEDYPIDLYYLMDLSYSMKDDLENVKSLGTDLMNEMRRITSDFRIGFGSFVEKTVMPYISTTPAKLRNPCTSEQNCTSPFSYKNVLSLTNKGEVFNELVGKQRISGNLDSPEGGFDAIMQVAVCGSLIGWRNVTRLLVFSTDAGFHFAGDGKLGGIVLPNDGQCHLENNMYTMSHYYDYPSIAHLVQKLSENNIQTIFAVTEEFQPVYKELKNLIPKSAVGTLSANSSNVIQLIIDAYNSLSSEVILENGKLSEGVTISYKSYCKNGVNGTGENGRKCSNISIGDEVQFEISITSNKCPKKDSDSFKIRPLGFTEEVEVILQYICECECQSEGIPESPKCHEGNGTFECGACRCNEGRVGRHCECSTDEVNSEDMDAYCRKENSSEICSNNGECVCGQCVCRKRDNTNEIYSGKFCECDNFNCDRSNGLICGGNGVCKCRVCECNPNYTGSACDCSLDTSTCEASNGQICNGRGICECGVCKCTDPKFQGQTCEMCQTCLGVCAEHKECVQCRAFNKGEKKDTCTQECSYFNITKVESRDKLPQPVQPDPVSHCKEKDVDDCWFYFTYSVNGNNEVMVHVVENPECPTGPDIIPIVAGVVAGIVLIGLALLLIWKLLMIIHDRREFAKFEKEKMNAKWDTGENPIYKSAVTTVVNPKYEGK
Experiment: Inhibition of VLA4-dependent adhesion to BSA-CS1
Format: cell-based

[1] = binding of BCECF-labelled Ramos cells to BSA-CS1 coated wells, 2 mM MnCl2, read-out: IC50

Row | SMILES | pIC50 [1] | pIC50
1 | CCC(C)C(NC(=O)C(CC(=O)O)NC(=O)C(CC(C)C)NC(=O)Cc1ccccc1)C(=O)OC (stereo not drawn) [Compound 54] (PhAc-Leu-Asp-Ile-OMe; configuration not given here) | < 5.00 | –
2 | Cc1ccccc1NC(=O)Nc1ccc(CC(=O)N[C@@H](CCC(N)=O)C(=O)N[C@@H](CC(=O)O)C(=O)N[C@H](C(N)=O)C(C)C)cc1 [Compound 299] | > 7.30 | –
3 | Cc1ccccc1NC(=O)Nc1ccc(CC(=O)N[C@@H](CCC(=O)O)C(=O)N[C@@H](CC(=O)O)C(=O)N[C@H](CO)C(N)=O)cc1 [Compound 273] | > 7.30 | –
4 | CC(C)CC(NC(=O)CCc1ccc(O)cc1)C(=O)NC(CC(=O)O)C(=O)NC(C(=O)N1CCCC1C(=O)O)C(C)C (stereo not shown) [Compound 38] | < 5.00 | –
5 | Cc1ccccc1NC(=O)Nc1ccc(CC(=O)N[C@@H](CO)C(=O)N[C@@H](CC(=O)O)C(=O)N[C@H](CCC(=O)O)C(N)=O)cc1 [Compound 283] | > 7.30 | –
6 | Cc1ccccc1NC(=O)Nc1ccc(CC(=O)N[C@@H](CC(C)C)C(=O)N[C@@H](CC(=O)O)C(=O)N[C@H](C(=O)N2CCC[C@H]2C(=O)N[C@@H](CO)C(=O)N[C@H](C(=O)O)[C@@H](C)O)C(C)C)cc1 [Compound 338] ({NH(2-Me-phenyl)-CO}-[X1]LDVPST-OH) | – | > 7.30
7 | Cc1ccccc1NC(=O)Nc1ccc(CC(=O)N[C@H](CC(C)C)C(=O)N[C@@H](CC(=O)O)C(=O)N[C@@H](CCC(=O)O)C(N)=O)cc1 [Compound 290] | > 7.30 | –
8 | Cc1ccccc1NC(=O)Nc1ccc(CC(=O)N2CCCC2C(=O)NC(CC(=O)O)C(=O)NC(CO)C(N)=O)cc1 (stereo not shown) [Compound 251] | > 7.30 | –
9 | CC(C)C[C@H](NC(=O)Cc1ccc(NC(=O)Nc2ccccc2)cc1)C(=O)N[C@@H](CC(=O)O)C(=O)N[C@H](C(=O)N1CCC[C@H]1C(N)=O)C(C)C [Compound 208] ({NHPh-CO}-[X1]LDVP-NH2) | > 7.30 | –
10 | CC(C)CC(NC(=O)CCc1ccccc1)C(=O)NC(CC(=O)O)C(=O)NCC1CCCCC1 (stereo not shown) [Compound 24] | < 5.00 | –
11 | CC(C)C[C@H](NC(=O)c1ccc(C(C)C)cc1)C(=O)N[C@@H](CC(=O)O)C(=O)N[C@H](C(=O)O)C(C)C [Compound 405] | < 5.00 | –
12 | COC(=O)[C@@H](NC(=O)[C@H](CC(=O)O)NC(=O)[C@H](CC(C)C)NC(=O)Cc1ccccc1)[C@@H](C)OCc1ccccc1 [Compound 192] (PhAc-Leu-Asp-Thr(Bn)-OMe) | 5.00 to 7.30 | –
13 | COC(=O)[C@@H](NC(=O)[C@H](CC(=O)O)N1CCC(NC(=O)OCc2ccccc2)C1=O)C(C)C (stereo partly shown) [Compound 334] | < 5.00 | –
14 | CC(C)C(NC(=O)C(CC(=O)O)NC(=O)C(NC(=O)c1cc2ccccc2cn1)C1CCCCC1)C(=O)O (stereo not shown) [Compound 83] | < 5.00 | –
15 | CCCCCCNC(=O)C(NC(=O)C(CC(=O)O)NC(=O)C(CC(C)C)NC(=O)CCc1ccc(O)cc1)C(C)C (stereo not shown) [Compound 119] | < 5.00 | –
16 | COC(=O)C1CCCN1C(=O)C(NC(=O)C(CC(=O)O)NC(=O)C(CC(C)C)NC(=O)Cc1ccccc1)C(C)C (stereo not shown) [Compound 35] | 5.00 to 7.30 | –
17 | COc1ccc2cc(C(C)C(=O)N[C@@H](CC(C)C)C(=O)N[C@@H](CC(=O)O)C(=O)N[C@H](C(=O)O)C(C)C)ccc2c1 (stereo partly shown) [Compound 394] | < 5.00 | –
18 | Cc1ccccc1NC(=O)Nc1ccc(CC(=O)N[C@@H](CCCCNC(=O)CCCCCN)C(=O)N[C@@H](CC(=O)O)C(=O)N[C@H](C(=O)N2CCC[C@H]2C(=O)O)C(C)C)cc1 [Compound 202] ({NH(2-Me-phenyl)-CO}-[X1]K(Ahx)DVP-OH) | 5.00 to 7.30 | –
19 | Cc1ccccc1NC(=O)Nc1ccc(CC(=O)N[C@@H](CCC(=O)O)C(=O)N[C@@H](CC(=O)O)C(=O)N[C@H](CC(N)=O)C(N)=O)cc1 [Compound 270] | > 7.30 | –
20 | Cc1ccc2nc(C(=O)N[C@@H](CC(C)C)C(=O)N[C@@H](CC(=O)O)C(=O)N[C@H](C(=O)O)C(C)C)[nH]c(=O)c2c1 [Compound 370] | < 5.00 | –
21 | Cc1ccccc1NC(=O)Nc1ccc(CC(=O)N[C@H](C(=O)N[C@@H](CC(=O)O)C(=O)N[C@@H](CC(=O)O)C(N)=O)[C@@H](C)O)cc1 [Compound 252] | > 7.30 | –
22 | Cc1ccccc1NC(=O)Nc1ccc(CC(=O)N[C@H](CC(C)C)C(=O)N[C@@H](CC(=O)O)C(=O)N[C@@H](CC(=O)O)C(N)=O)cc1 [Compound 286] | > 7.30 | –
23 | Cc1cccc(NC(=O)Nc2ccc(CC(=O)N[C@@H](CC(C)C)C(=O)N[C@@H](CC(=O)O)C(=O)N[C@H](C(=O)N3CCC[C@H]3C(=O)O)C(C)C)cc2)n1 [Compound 346] ({X3-CO}-[X1]LDVP-OH) | > 7.30 | –
24 | COc1cccc(CC(=O)N[C@@H](CC(C)C)C(=O)N[C@@H](CC(=O)O)C(=O)N[C@H](C(=O)O)C(C)C)c1 [Compound 367] | < 5.00 | –
25 | Cc1ccccc1NC(=O)Nc1ccc(CC(=O)N[C@@H](CO)C(=O)N[C@@H](CC(=O)O)C(=O)N[C@@H](CC(C)C)C(N)=O)cc1 [Compound 276] | > 7.30 | –
26 | CCCc1ccc(C(=O)N[C@@H](CC(C)C)C(=O)N[C@@H](CC(=O)O)C(=O)N[C@H](C(=O)O)C(C)C)cc1 [Compound 374] | < 5.00 | –
27 | CNC(=O)[C@@H](NC(=O)[C@H](CC(=O)O)NC(=O)[C@H](CC(C)C)NC(=O)Cc1ccc(NC(=O)Nc2ccccc2)cc1)C(C)C [Compound 204] | 5.00 to 7.30 | –
28 | Cc1ccccc1NC(=O)Nc1ccc(CC(=O)N[C@H](C(=O)N[C@@H](CC(=O)O)C(=O)N[C@@H](CCC(=O)O)C(N)=O)[C@@H](C)O)cc1 [Compound 256] | > 7.30 | –

Row | SMILES | pIC50 [1] | pIC50
29 | Cc1ccccc1NC(=O)Nc1ccc(CC(=O)N[C@@H](CC(C)C)C(=O)N[C@@H](CC(=O)O)C(=O)N[C@H](C(N)=O)[C@@H](C)O)cc1 [Compound 235] | > 7.30 | –
30 | CSCC[C@H](NC(=O)Cc1ccc(NC(=O)Nc2ccccc2C)cc1)C(=O)N[C@@H](CC(=O)O)C(=O)N[C@@H](CCC(=O)O)C(N)=O [Compound 223] | > 7.30 | –
31 | Cc1ccccc1NC(=O)Nc1ccc(CC(=O)NC(CC(C)C)C(=O)NC(CC(=O)O)C(=O)NC(C(=O)N2CCOCC2)C(C)C)cc1 (stereo not shown) [Compound 329] | > 7.30 | –
32 | Cc1c(C(=O)N[C@@H](CC(C)C)C(=O)N[C@@H](CC(=O)O)C(=O)N[C@H](C(=O)O)C(C)C)cnn1-c1ccccc1 [Compound 369] | < 5.00 | –
33 | Cc1ccccc1NC(=O)Nc1ccc(CC(=O)N[C@H](C(=O)N[C@@H](CC(=O)O)C(=O)N[C@H](C(N)=O)C(C)C)[C@@H](C)O)cc1 [Compound 254] | > 7.30 | –
34 | Cc1ccccc1NC(=O)Nc1ccc(CC(=O)N2CCC[C@H]2C(=O)N[C@@H](CC(=O)O)C(=O)N[C@H](CCC(=O)O)C(N)=O)cc1 [Compound 249] | > 7.30 | –
35 | CCC(C)C(NC(=O)C(CC(=O)O)NC(=O)C(CC(C)C)NC(=O)Cc1ccccc1)C(N)=O (stereo not drawn) [Compound 53] (PhAc-Leu-Asp-Ile-NH2; configuration not given here) | < 5.00 | –
36 | Cc1ccccc1NC(=O)Nc1ccc(CC(=O)N[C@@H](CO)C(=O)N[C@@H](CC(=O)O)C(=O)N[C@@H](CC(=O)O)C(N)=O)cc1 [Compound 275] | > 7.30 | –
37 | CCCC(NC(=O)C(CC(=O)O)NC(=O)C(CC(C)C)NC(=O)c1ccc2ccccc2n1)C(=O)NC (stereo not shown) [Compound 52] | < 5.00 | –
38 | CC(C)CC(NC(=O)Cc1ccc(NC(=O)Nc2ccccc2)cc1)C(=O)NC(CC(=O)O)C(=O)NC(C(=O)N1CCCC1C(N)=O)C(C)C (stereo not shown) [Compound 199] ({NHPh-CO}-[X1]LDVP-NH2; configuration not given here) | 5.00 to 7.30 | –
39 | CC(C)CC(NC(=O)CCCCc1ccccc1)C(=O)NC(CC(=O)O)C(=O)NCC1CCCCC1 (stereo not shown) [Compound 26] | < 5.00 | –
40 | CC(C)[C@H](NC(=O)[C@H](CC(=O)O)NC(=O)C(C)(C)NC(=O)c1cc2ccccc2cn1)C(=O)O [Compound 82] | < 5.00 | –
41 | COC(=O)C(CCSC)NC(=O)C(NC(=O)C(CC(=O)O)NC(=O)C(CC(C)C)NC(=O)OC(C)(C)C)C(C)C (stereo not shown) [Compound 167] (Boc-LDVM-OMe; configuration not given here) | < 5.00 | –
42 | Cc1ccccc1NC(=O)Nc1ccc(CC(=O)N2CCC[C@H]2C(=O)N[C@@H](CCC(=O)O)C(=O)O)cc1 [Compound 416] | 5.00 to 7.30 | –
43 | Cc1ccccc1NC(=O)Nc1ccc(CC(=O)N[C@@H](CCC(N)=O)C(=O)N[C@@H](CC(=O)O)C(=O)N[C@H](CCC(=O)O)C(N)=O)cc1 [Compound 305] | > 7.30 | –
44 | Cc1ccccc1NC(=O)Nc1ccc(CC(=O)N[C@@H](CC(C)C)C(=O)N[C@@H](CC(=O)O)C(=O)N[C@@H](CC(=O)O)C(N)=O)cc1 [Compound 230] | > 7.30 | –
45 | Cc1ccccc1NC(=O)Nc1ccc(CC(=O)N2CCC[C@H]2C(=O)N[C@@H](CC(=O)O)C(=O)O)cc1 [Compound 342] | < 5.00 | –
46 | CNC(=O)C(C)(C)NC(=O)[C@H](CC(=O)O)NC(=O)[C@H](CC(C)C)NC(=O)c1ccc2ccccc2n1 [Compound 185] | < 5.00 | –
47 | Cc1ccccc1NC(=O)Nc1ccc(CC(=O)N[C@@H](CO)C(=O)N[C@@H](CC(=O)O)C(=O)N[C@H](CC(C)C)C(N)=O)cc1 [Compound 278] | > 7.30 | –
48 | CSCC[C@H](NC(=O)Cc1ccc(NC(=O)Nc2ccccc2C)cc1)C(=O)N[C@@H](CCC(=O)O)C(=O)N[C@@H](CC(=O)O)C(N)=O [Compound 308] | > 7.30 | –
49 | Cc1ccccc1NC(=O)Nc1ccc(CC(=O)N[C@H](CC(C)C)C(=O)N[C@@H](CC(=O)O)C(=O)N[C@H](C(N)=O)C(C)C)cc1 [Compound 288] | > 7.30 | –
50 | CC(C)CC(NC(=O)CCCc1ccccc1)C(=O)NC(CC(=O)O)C(=O)NCC1CCCCC1 (stereo not shown) [Compound 25] | < 5.00 | –
51 | CC(C)C[C@H](NC(=O)OCC1c2ccccc2-c2ccccc21)C(=O)N[C@@H](CC(=O)O)C(=O)N[C@H](C(=O)O)C(C)C [Compound 366] (Fmoc-Leu-Asp-Val-OH) | < 5.00 | –
52 | CNC(=O)[C@H](CCC(=O)O)NC(=O)[C@@H]1CCCN1C(=O)Cc1ccc(NC(=O)Nc2ccccc2C)cc1 [Compound 413] | 5.00 to 7.30 | –
53 | CC[C@H](C)[C@H](NC(=O)CCc1ccc(O)cc1)C(=O)N[C@H](CC(=O)O)C(=O)NCC(C)C [Compound 16] | < 5.00 | –
54 | CSCC[C@H](NC(=O)Cc1ccc(NC(=O)Nc2ccccc2C)cc1)C(=O)N[C@@H](CC(=O)O)C(=O)N[C@H](CCC(=O)O)C(N)=O [Compound 227] | > 7.30 | –
55 | CCC(C)C(NC(=O)C(CC(=O)O)NC(=O)C(CC(C)C)NC(=O)c1ccc2ccccc2n1)C(=O)NC (stereo not shown) [Compound 57] | 5.00 to 7.30 | –
